105 molecules from PubChem BioAssay AID1996 can be followed below.

Converted amounts (≈) assume the structure as drawn. Some results are limits rather than exact numbers.

The conditions of this data set: buffer; pH 7.4; 200.0 µM.
In the case of `CSc1ncccc1C(=O)NCCc1ccccc1F`, the kinetic solubility is greater than 43.6 µg/mL.

In turn, `COc1cc(C(=O)NC(C)C2CC3CCC2C3)cc(OC)c1OC` (stereo not given) yielded a kinetic solubility of 9.8 µg/mL (≈ 29.4 µM).

`C=CCNC(=O)CSCc1ccc(Br)cc1` showed a solubility (kinetic) greater than 45 µg/mL.

`O=C(NCCc1nnc2ccccn12)c1cccs1` had a kinetic solubility greater than 40.8 µg/mL. Then `CCCCCCCCCCOC(=O)NC1CCS(=O)(=O)C1` (stereo not given), with 1.1 µg/mL (≈ 3.44 µM); and `COc1ccc(N=C2NC(=O)/C(=C\c3ccco3)S2)cc1`, with 2.6 µg/mL (≈ 8.66 µM). Turning to `Cc1cccc(OCCCN2CCOCC2)c1`, the solubility (kinetic) was 28 µg/mL (≈ 119 µM). `Cc1ccc(NS(=O)(=O)c2cccc3nsnc23)cc1` returned a solubility (kinetic) of 36 µg/mL (≈ 118 µM).

In turn, `CCOc1cc(/C=C2/NC(=O)N(CC(=O)OC)C2=O)ccc1O` returned a solubility (kinetic) of 14.8 µg/mL (≈ 46.2 µM). Under `Nc1nc2ccccc2[nH]1` stands greater than 20 µg/mL.

On to `COc1ccc(NC(=O)C2CC3CCC2C3)c(OC)c1` (stereo not given), for which the solubility (kinetic) is 31.5 µg/mL (≈ 114 µM). Then `CC1CC(C)CN(C(=O)CSc2n[nH]c(N)n2)C1` (stereo not given), with greater than 40.4 µg/mL. Under `Cc1cc([N+](=O)[O-])nn1CC(=O)NCc1ccccc1` stands greater than 41.1 µg/mL; under `Cc1cc2c(=O)n(C)c(SCC(=O)Nc3ccccc3)nc2s1`, 0.4 µg/mL (≈ 1.16 µM).

`COc1ccc2[nH]c(C(=O)N3CCNCC3)cc2c1OC` showed a kinetic solubility of 36.2 µg/mL (≈ 125 µM). Under `CC1CN(C(=S)Nc2ccc(Cl)cc2)CC(C)O1` (stereo not given) stands greater than 42.7 µg/mL. Then `Cc1sc2c(c1C)C(=O)/C(=C\Nc1ccccn1)S(=O)(=O)N2C`, with less than 0.2 µg/mL.

Take `CN(C)c1ccc(NC(=O)Nc2cccc3ccccc23)cc1`: the solubility (kinetic) was 2.6 µg/mL (≈ 8.51 µM). Under `Cc1ccc(/C=C/S(=O)(=O)NCCC(=O)NCc2ccccc2F)cc1` stands 9 µg/mL (≈ 23.9 µM); under `O=[N+]([O-])c1cccc(-c2csc(CS(=O)(=O)Cc3ccco3)n2)c1`, 0.6 µg/mL (≈ 1.65 µM); under `COc1ccc(N2C(=O)CC(NCC#N)C2=O)cc1` (stereo not given), 33.1 µg/mL (≈ 128 µM). Under `COc1cc2c(cc1OC)-c1cc(Nc3ccc(F)cc3)nc(=O)n1CC2` stands 2.1 µg/mL (≈ 5.72 µM); under `O=C(NCc1ccccn1)C(=O)NCC(c1ccco1)N1CCOCC1` (stereo not given), greater than 53.8 µg/mL.

Molecule `Cc1nc(SCC(=O)NCC2CCCO2)nc(C)c1C` (stereo not given) gave a kinetic solubility greater than 44.3 µg/mL. Under `O=C(Nc1ccc2c(c1)Cc1ccccc1-2)c1cccnc1` stands 1.4 µg/mL (≈ 4.89 µM); under `Cc1cc(C)c(C(=O)/C=C/c2cccs2)c(=O)[nH]1`, 34.4 µg/mL (≈ 133 µM); under `CCc1ccc(OCc2cnc(Cl)s2)cc1`, less than 0.5 µg/mL.

In turn, `O=C(NCCN1CCCCC1)Nc1cccc(C(F)(F)F)c1` showed a kinetic solubility greater than 47.3 µg/mL.

Molecule `CC1Oc2ccccc2N(CC(=O)N2CCCCC2)C1=O` (stereo not given) displayed a kinetic solubility greater than 43.3 µg/mL. In the case of `CS(=O)(=O)N1CCN(c2nc3ccc(Cl)cc3s2)CC1`, the solubility (kinetic) was less than 0.2 µg/mL. Then `Cc1ccc(OCC(=O)NCCNC(=O)c2cccnc2)cc1C`, with 46.7 µg/mL (≈ 143 µM). Then `CC(C)NC(=O)CSc1nccc(-c2cccs2)n1`, with 38.7 µg/mL (≈ 132 µM); and `Oc1c(Cl)cc(Cl)cc1CNc1nccs1`, with 2.9 µg/mL (≈ 10.5 µM); and `C=CCn1c(SCC(C)=O)nnc1-c1ccc2ncccc2c1`, with greater than 48.7 µg/mL. Then `CC1=CC(C)(C)Nc2ccc(OC(=O)CN3C(=O)c4cccc5cccc(c45)C3=O)cc21`, with 56.3 µg/mL (≈ 132 µM). Consider `O=c1ccc(-c2ccccc2)no1`, for which the solubility (kinetic) was greater than 26 µg/mL. On to `CN(CC(=O)N1CCN(Cc2ccccc2)CC1)C(=O)Cc1ccc(Cl)c(Cl)c1`, for which the solubility (kinetic) was found to be 61.7 µg/mL (≈ 142 µM). `O=C(O)CN1C(=O)C(=O)N(Cc2c(F)cccc2Cl)C1=O` gave a solubility (kinetic) of 45.5 µg/mL (≈ 145 µM).

On to `COc1ccccc1N1CCN(C(=O)C2CC2)CC1`, for which the kinetic solubility was greater than 39.1 µg/mL. As for `Cl.c1ccc(C2NCCc3ccccc32)cc1` (stereo not given), the kinetic solubility is greater than 36.9 µg/mL.

The molecule `COc1ccc(C=NNC(=O)c2cc(C)oc2C)cc1O` gave a solubility (kinetic) greater than 43.2 µg/mL.

The molecule `CCn1cnc2c1c(=O)[nH]c(=O)n2Cc1ccccc1` yielded a solubility (kinetic) of 34.6 µg/mL (≈ 128 µM). Then `O=C(Nc1nc2ccccc2[nH]1)c1ccc(Br)o1`, with 15.5 µg/mL (≈ 50.6 µM); and `CC(=O)Nc1ccc(Nc2ccccc2)cc1`, with greater than 33.9 µg/mL. Turning to `N#Cc1cccnc1N1CCN(C(=O)c2ccccc2)CC1`, the kinetic solubility was 43.4 µg/mL (≈ 148 µM). Then `Cc1nc(N(C)Cc2ccccc2)c2c(C)c(C)sc2n1`, with 4.2 µg/mL (≈ 14.1 µM).

As for `FC(F)(F)c1ccc(-n2cn[nH]c2=S)cc1`, the kinetic solubility is greater than 36.8 µg/mL.

Turning to `Cc1c(C(=O)c2ccccc2)c2ccccn2c1CCc1ccccn1`, the kinetic solubility came to 3.7 µg/mL (≈ 10.9 µM).

For the molecule `O=C(CN1CCOCC1)Nc1nc(-c2ccccc2)cs1`, the kinetic solubility was found to be 42.2 µg/mL (≈ 139 µM). This solubility kinetic lies about 11-fold higher than the previous one. Then `Cc1cc(C)c2c(CN3CCCCC3C)cc(=O)oc2c1.Cl` (stereo not given), with 2 µg/mL. Then `Cn1cnnc1Sc1ccc(S(C)(=O)=O)cc1[N+](=O)[O-]`, with greater than 47.1 µg/mL. Take `CN(Cc1c(F)cccc1Cl)S(=O)(=O)c1cccs1`: the kinetic solubility is less than 0.7 µg/mL.

For `OCCC1CN(Cc2ccsc2)CCN1C1CCCC1` (stereo not given), the kinetic solubility is greater than 44.2 µg/mL. `Cc1sc(NC(=O)c2cccnc2)nc1-c1ccccc1` came in with a solubility (kinetic) of 1.1 µg/mL (≈ 3.72 µM). Under `Nc1nc(Cl)cc(=O)n1Cc1ccc(Cl)cc1` stands 28.1 µg/mL (≈ 104 µM). Under `C=C(C)Cc1c(C)c(C#N)c2[nH]c3ccccc3n2c1=O` stands 2.9 µg/mL (≈ 10.5 µM). As for `O=C(COC(=O)c1ccc(Cl)nc1)NCc1ccc(F)cc1`, the solubility (kinetic) stood at 14.3 µg/mL (≈ 44.3 µM). Then `CCOc1ccccc1NC(=O)CCNC(=O)c1ccco1`, with 42.6 µg/mL (≈ 141 µM); and `NS(=O)(=O)c1cc(C(=O)Nc2ccc3c(c2)CCC3)ccc1Cl`, with 4.6 µg/mL (≈ 13.1 µM). Under `CCOC(=O)C1=C(Nc2ccc(OC)cc2)OCC1=O` stands 39.5 µg/mL (≈ 142 µM); under `O=C(Nc1nccs1)C1CCCN1/C=C/C(=O)C(F)(F)F` (stereo not given), 46.1 µg/mL (≈ 144 µM); under `O=C(NC(=O)c1ccccc1)Nc1ccccc1`, 1.2 µg/mL (≈ 4.99 µM). In the case of `COc1ccc(/C=C/C(=O)OCC(=O)Nc2cccc(S(=O)(=O)NC3=NCCCCC3)c2)cc1`, the kinetic solubility stood at 12.4 µg/mL (≈ 25.5 µM). Then `COC(=O)CC1C(=O)NCCN1C(=O)Nc1cccc(Cl)c1` (stereo not given), with 48.8 µg/mL (≈ 150 µM); and `O=c1cc(C(F)(F)F)[nH]c(=S)n1-c1ccccc1`, with greater than 40.8 µg/mL; and `CN(C)c1ccc(-c2nc3cc(N)ccc3o2)cc1`, with 14 µg/mL (≈ 55.3 µM). Under `Clc1ccccc1Nc1nc2ccccc2o1` stands 2.3 µg/mL (≈ 9.4 µM); under `COc1ccccc1OCc1nc2ccccc2n1C`, 37.5 µg/mL (≈ 140 µM).

`CC1(C(=O)OCC(=O)Nc2ccc(S(=O)(=O)N3CCOCC3)cc2)CC1(Cl)Cl` (stereo not given) yielded a solubility (kinetic) of 60.5 µg/mL (≈ 134 µM). Under `CCc1nonc1NC(=O)c1oc2ccc(C)cc2c1C` stands less than 0.2 µg/mL.

Turning to `COc1cc(/C=N/O)ccc1Oc1cnccn1`, the solubility (kinetic) was greater than 36.8 µg/mL. Then `CSc1ccc(Cl)c(C(=O)Nc2ccc(Cl)cn2)c1`, with 0.5 µg/mL (≈ 1.6 µM); and `O=Nc1[nH]c(=O)c(/C=C(\O)c2ccccc2)nc1NO`, with 33.8 µg/mL (≈ 123 µM); and `O=C(O)/C(=C\c1ccco1)NC(=O)c1ccco1`, with greater than 37.1 µg/mL. `COc1ccc(C(=O)OCC(=O)Nc2c(C)n(C)n(-c3ccccc3)c2=O)cc1` yielded a solubility (kinetic) greater than 59.3 µg/mL. Then `CC(Oc1ccccc1)C(=O)OCC(=O)Nc1ccc2c(c1)OCO2` (stereo not given), with greater than 51.5 µg/mL. Under `CC(NC(=O)CN1C(=O)c2ccccc2C1=O)c1ccccc1` (stereo not given) stands 8.4 µg/mL (≈ 27.2 µM). Under `CC(=O)N1CCN(S(=O)(=O)c2ccc(Cl)cc2F)CC1` stands greater than 48.1 µg/mL.

With `O=C(c1ccc(F)c(F)c1)N1CCCc2ccccc21`, the kinetic solubility turned out to be 37.9 µg/mL (≈ 139 µM). Under `Cc1cc(C(=O)O/N=C(\N)c2ccncc2)ccc1[N+](=O)[O-]` stands 25.1 µg/mL (≈ 83.6 µM); under `COc1ccc(C(=O)NC2=NCCS2)c(OC)c1`, greater than 39.9 µg/mL; under `CC(C(=O)OCC(=O)c1ccccc1)N1C(=O)c2ccccc2C1=O` (stereo not given), 40.4 µg/mL (≈ 120 µM). Then `O=S1(=O)CCC(NS(=O)(=O)c2ccc3ccccc3c2)C1` (stereo not given), with greater than 48.8 µg/mL; and `COc1ccc(-c2cc(C#N)nc(Cl)n2)cc1`, with 1.3 µg/mL (≈ 5.29 µM). Then `O=Cc1ccc(C(=O)OCC(=O)N2CCCC2)cc1`, with 36.3 µg/mL (≈ 139 µM); and `Cc1ncc(CSc2ccc(Cl)cc2)c(CO)c1O`, with 14.1 µg/mL (≈ 47.7 µM).

As for `Cl.O=S(=O)(c1ccc(F)cc1)N1CCCNCC1`, the solubility (kinetic) is greater than 44.2 µg/mL.

In turn, `CCCCn1cc2c(c1-c1cccc(C)c1)c(=O)n(C)c(=O)n2C` showed a kinetic solubility of 14 µg/mL (≈ 43 µM). Under `NC(=O)c1ccccc1OC1CCC1` stands greater than 28.7 µg/mL; under `Cc1ccc(CNc2cc(C(=O)O)ccc2C)s1`, greater than 39.2 µg/mL; under `CC(=O)C1=C(C)OC(N)=C(C#N)C1c1cccnc1` (stereo not given), greater than 38.3 µg/mL. Then `COc1cccc(NC(=O)CN(C)C(C)C(=O)N2CCCCC2)c1.O=C(O)C(=O)O` (stereo not given), with greater than 63.5 µg/mL; and `O=C(Nc1ccc(Cl)cc1)c1ccc(Br)cc1F`, with less than 0.7 µg/mL; and `Cc1onc(-c2ccccc2)c1C(=O)Nc1cccc(S(=O)(=O)N2CCCCC2)c1`, with 2.5 µg/mL (≈ 5.88 µM).

In the case of `CN(C)NC(=O)c1csnc1-c1c(Cl)cccc1Cl`, the kinetic solubility is greater than 47.4 µg/mL. Under `FC(F)(F)c1cccc(CN2CCN(c3ncccn3)CC2)c1` stands 8.7 µg/mL (≈ 27 µM); under `CCn1c(=NC(=O)COc2ccccc2)sc2cccc(F)c21`, less than 0.4 µg/mL. Then `CCOc1ccc(S(=O)(=O)N2CCN(C(=O)c3ccco3)CC2)cc1`, with greater than 54.7 µg/mL; and `O=C(NCc1cccnc1)C(=O)NCC(c1ccco1)N1CCOCC1` (stereo not given), with greater than 53.8 µg/mL; and `O=C(Nc1ccc(S(=O)(=O)NC2=NCCCCC2)cc1)c1ccc(Cl)c([N+](=O)[O-])c1`, with 22 µg/mL (≈ 48.8 µM).

In turn, `O=C(Nc1ccc(Cl)c([N+](=O)[O-])c1)c1ccc2c(c1)OCCO2` returned a solubility (kinetic) of less than 0.4 µg/mL.

In the case of `N#C/C(=C\c1ccccc1Cl)C(=O)Nc1ccccn1`, the solubility (kinetic) is 37.7 µg/mL (≈ 133 µM). `COc1cc2c(cc1OC)-c1cc(Nc3ccc(C)cc3)nc(=O)n1CC2` came in with a kinetic solubility of 1.9 µg/mL (≈ 5.23 µM). Regarding `CNC(=S)Nc1cccc(C(=O)OC)c1`, the kinetic solubility was greater than 33.6 µg/mL. Under `O=C(Nc1nc(-c2ccccn2)cs1)Nc1ccc(F)cc1F` stands 2.4 µg/mL (≈ 7.22 µM).
